Read-outs that look alike come from different tables or passages of the source.
Tests used:
[1] = target: Recombinant human Cbl-b (aa 36-427) (Homo sapiens, UniProt Q13191); assay: Cbl-b Biochemical Assay (TR-FRET); settings: read-out: TR-FRET hCbl-b IC50
[2] = test system: Jurkat (clone E6-1) cells with NFAT luciferase reporter; assay: Jurkat reporter assay (NFAT Luciferase); format: cell-based; settings: Homo sapiens
[3] = target: T1, Recombinant human c-Cbl (aa 47-435) (Homo sapiens, UniProt P22681); assay: c-Cbl Biochemical Assay (TR-FRET); settings: hc-Cbl Biochemical Assay (TR-FRET); read-out: TR-FRET hcCbl IC50
T1 sequence (P22681 47-435): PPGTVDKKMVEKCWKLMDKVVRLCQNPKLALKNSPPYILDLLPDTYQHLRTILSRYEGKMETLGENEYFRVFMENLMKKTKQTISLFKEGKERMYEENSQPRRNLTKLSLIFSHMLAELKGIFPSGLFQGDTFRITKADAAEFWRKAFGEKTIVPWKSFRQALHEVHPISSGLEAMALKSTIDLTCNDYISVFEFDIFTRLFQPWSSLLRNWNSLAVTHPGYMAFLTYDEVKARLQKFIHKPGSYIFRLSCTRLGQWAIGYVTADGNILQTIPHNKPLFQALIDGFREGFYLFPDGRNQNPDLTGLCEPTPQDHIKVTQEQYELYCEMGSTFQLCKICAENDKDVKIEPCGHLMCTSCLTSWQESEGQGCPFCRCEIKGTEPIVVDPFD

[4] = Jurkat NFAT luciferase reporter cells, anti-CD3 stimulation, 6 hr, read-out: Jurkat NFAT EC50

Chain of Recombinant human Cbl-b (aa 36-427) (Q13191 36-427): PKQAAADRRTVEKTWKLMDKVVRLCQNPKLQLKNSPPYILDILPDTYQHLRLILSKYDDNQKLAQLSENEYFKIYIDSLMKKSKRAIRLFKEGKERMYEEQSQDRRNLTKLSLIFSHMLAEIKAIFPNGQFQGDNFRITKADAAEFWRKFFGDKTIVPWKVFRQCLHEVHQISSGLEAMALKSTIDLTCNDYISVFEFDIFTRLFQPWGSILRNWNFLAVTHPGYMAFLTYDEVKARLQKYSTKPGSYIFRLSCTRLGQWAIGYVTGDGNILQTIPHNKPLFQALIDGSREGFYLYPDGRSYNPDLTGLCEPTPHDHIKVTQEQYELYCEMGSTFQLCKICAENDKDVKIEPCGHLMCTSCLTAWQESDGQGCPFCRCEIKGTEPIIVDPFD

For `COCCNCc1cc(C(F)(F)F)c2oc(-c3cccc(-c4ccc(F)cc4-c4nncn4C)c3)nc2c1` [AA-2, N-((2-(4′-Fluoro-2′-(4-methyl-4H-1,2,4-triazol-3-yl)-[1,1′-biphenyl]-3-yl)-7-(trifluoromethyl)benzo[d]oxazol-5-yl)methyl)-2-methoxyethan-1-amine], the IC50 [1] was less than 0.2 µM, the EC50 [2, 4] was 0.2 to 1 µM and the IC50 [3] was 1 to 10 µM.
`CC(c1cc(C(F)(F)F)c2oc(-c3cccc(C4(Cc5nncn5C)COC4)c3)nc2c1)N1CCC2(CC2)C1` (stereo not drawn) [AAB-9, 5-(1-{5-Azaspiro[2.4]heptan-5-yl}ethyl)-2-(3-{3-[(4-methyl-1,2,4-triazol-3-yl)methyl]oxetan-3-yl}phenyl)-7-(trifluoromethyl)-1,3-benzoxazole] gave an IC50 [1] of less than 0.2 µM, an EC50 [2, 4] of 0.2 to 1 µM and an IC50 [3] of 1 to 10 µM.
For `C[C@H](c1cc(C(F)(F)F)c2oc(-c3cccc(C4(Cc5nncn5C)COC4)c3)nc2c1)N1CCC2(CC2)C1` [AAD-1, 5-[(1R)-1-{5-azaspiro[2.4]heptan-5-yl}ethyl]-2-(3-{3-[(4-methyl-1,2,4-triazol-3-yl)methyl]oxetan-3-yl}phenyl)-7-(trifluoromethyl)-1,3-benzoxazole], the IC50 [1] was less than 0.2 µM, the EC50 [2, 4] was 0.2 to 1 µM and the IC50 [3] was 1 to 10 µM.
`C[C@@H](c1cc(C(F)(F)F)c2oc(-c3cccc(C4(Cc5nncn5C)COC4)c3)nc2c1)N1CCC2(CC2)C1` [AAE-1, 5-[(1S)-1-{5-azaspiro[2.4]heptan-5-yl}ethyl]-2-(3-{3-[(4-methyl-1,2,4-triazol-3-yl)methyl]oxetan-3-yl}phenyl)-7-(trifluoromethyl)-1,3-benzoxazole] showed an IC50 [1] of less than 0.2 µM, an EC50 [2, 4] of 0.2 to 1 µM and an IC50 [3] of less than 0.2 µM.
With `CCNc1cc(-c2ccccc2-c2nncn2C)cc(-c2nc3cc(CN4CCC5(CC5)C4)cc(C(F)(F)F)c3[nH]2)n1` [AAG-4, 6-(6-{5-Azaspiro[2.4]heptan-5-ylmethyl}-4-(trifluoromethyl)-3H-1,3-benzodiazol-2-yl)-N-ethyl-4-[2-(4-methyl-1,2,4-triazol-3-yl)phenyl]pyridin-2-amine] the IC50 [1] was 0.2 to 1 µM, the EC50 [2, 4] was 1 to 10 µM and the IC50 [3] was 10 to 50 µM.
Work on `C[C@H]1CCCN(Cc2cc(C(F)(F)F)c3[nH]c(-c4cccc(-c5ccccc5-c5nncn5C)c4)nc3c2)C1` [AAI-5, 2-[2′-(4-Methyl-1,2,4-triazol-3-yl)-[1,1′-biphenyl]-3-yl]-6-{[(3S)-3-methylpiperidin-1-yl]methyl}-4-(trifluoromethyl)-3H-1,3-benzodiazole] yielded an IC50 [1] of 0.2 to 1 µM, an EC50 [2, 4] of 1 to 10 µM and an IC50 [3] of 10 to 50 µM.
`Cn1cnnc1-c1cc(F)ccc1-c1cccc(-c2nc3cc(CN4CCC5(CC5)C4)cc(C(F)(F)F)c3o2)c1` [AAL-5, 5-((5-Azaspiro[2.4]heptan-5-yl)methyl)-2-(4′-fluoro-2′-(4-methyl-4H-1,2,4-triazol-3-yl)-[1,1′-biphenyl]-3-yl)-7-(trifluoromethyl) benzo[d]oxazole] showed an IC50 [1] of less than 0.2 µM, an EC50 [2, 4] of 1 to 10 µM and an IC50 [3] of 1 to 10 µM.
In the case of `C[C@H]1CCCN(Cc2cc(C(F)(F)F)c3oc(-c4cc(-c5ccccc5-c5nncn5C)cc(C5CC5)n4)nc3c2)C1` [AAP-7, 2-{6-Cyclopropyl-4-[2-(4-methyl-1,2,4-triazol-3-yl)phenyl]pyridin-2-yl}-5-{[(3S)-3-methylpiperidin-1-yl]methyl}-7-(trifluoromethyl)-1,3-benzoxazole], the IC50 [1] is reported as less than 0.2 µM, the EC50 ([2]; Jurkat, 6 h, read-out: Jurkat NFAT EC50 (μM)) is reported as 0.2 to 1 µM and the IC50 [3] is reported as 1 to 10 µM.
`C[C@@H]1CCCN(Cc2cc(C(F)(F)F)c3oc(-c4cc(-c5ccccc5-c5nncn5C)cc(C5CC5)n4)nc3c2)C1` [AAQ-2, 2-{6-Cyclopropyl-4-[2-(4-methyl-1,2,4-triazol-3-yl)phenyl]pyridin-2-yl}-5-{[(3R)-3-methylpiperidin-1-yl]methyl}-7-(trifluoromethyl)-1,3-benzoxazole] showed an IC50 [1] of 0.2 to 1 µM, an EC50 [2, 4] of 1 to 10 µM and an IC50 [3] of 1 to 10 µM.
For `Cn1cnnc1-c1ccccc1-c1cc(-c2nc3cc(CN4CCC5(CC5)C4)cc(C(F)(F)F)c3o2)nc(C2CC2)c1` [AAR-2, 5-{5-Azaspiro[2.4]-heptan-5-ylmethyl}-2-{6-cyclopropyl-4-[2-(4-methyl-1,2,4-triazol-3-yl)-phenyl]-pyridin-2-yl}-7-(trifluoromethyl)-1,3-benzoxazole], the IC50 [1] was less than 0.2 µM, the EC50 [2, 4] was 1 to 10 µM and the IC50 [3] was 1 to 10 µM.
In the case of `Cn1cnnc1-c1ccccc1-c1cc(-c2nc3cc(CN4CCC5(CC5)C4)cc(C(F)(F)F)c3[nH]2)nc(C2CC2)c1` [AAS-2, 5-((5-Azaspiro[2.4]heptan-5-yl)methyl)-2-(6-cyclopropyl-4-(2-(4-methyl-4H-1,2,4-triazol-3-yl)phenyl)pyridin-2-yl)-7-(trifluoromethyl)-1H-benzo[d]imidazole], the IC50 [1] is reported as less than 0.2 µM, the EC50 [2, 4] is reported as 1 to 10 µM and the IC50 [3] is reported as 1 to 10 µM.
In the case of `Cn1cnnc1-c1cc(C#N)ccc1-c1cccc(-c2nc3cc(CN[C@@H]4CCC[C@@H]4O)cc(C(F)(F)F)c3[nH]2)c1` [AAW-5, 3′-(5-((((1R,2S)-2-Hydroxycyclopentyl)amino)methyl)-7-(trifluoromethyl)-1H-benzo[d]imidazol-2-yl)-2-(4-methyl-4H-1,2,4-triazol-3-yl)-[1,1′-biphenyl]-4-carbonitrile], the IC50 [1] is reported as less than 0.2 µM, the EC50 [2, 4] is reported as 0.2 to 1 µM and the IC50 [3] is reported as 1 to 10 µM.
For `C[C@H]1CCCN(Cc2cc(C(F)(F)F)c3[nH]c(-c4cccc([C@]5(c6nncn6C)C[C@@H](C)C5)c4)nc3c2)C1` [AAX-12, 6-{[(3S)-3-Methylpiperidin-1-yl]methyl}-2-{3-[(1r,3s)-3-methyl-1-(4-methyl-1,2,4-triazol-3-yl)cyclobutyl]phenyl}-4-(trifluoromethyl)-3H-1,3-benzodiazole], the IC50 [1] was less than 0.2 µM, the EC50 [2, 4] was 1 to 10 µM and the IC50 [3] was 10 to 50 µM.
Work on `C[C@H]1CCCN(Cc2cc(C(F)(F)F)c3oc(-c4cccc([C@]5(c6nncn6C)C[C@@H](C)C5)c4)nc3c2)C1` [AAY-2, 5-{[(3S)-3-Methylpiperidin-1-yl]methyl}-2-{3-[(1r,3s)-3-methyl-1-(4-methyl-1,2,4-triazol-3-yl)cyclobutyl]phenyl}-7-(trifluoromethyl)-1,3-benzoxazole] yielded an IC50 [1] of less than 0.2 µM, an EC50 [2, 4] of 1 to 10 µM and an IC50 [3] of 1 to 10 µM.
Work on `C[C@H]1CCCN(Cc2cc(C(F)(F)F)c3[nH]c(-c4cc(-c5ccc(F)cc5-c5nncn5C)cc(C5CC5)n4)nc3c2)C1` [AAZ-10, (S)-2-(6-Cyclopropyl-4-(4-fluoro-2-(4-methyl-4H-1,2,4-triazol-3-yl)phenyl)pyridin-2-yl)-5-((3-methylpiperidin-1-yl)methyl)-7-(trifluoromethyl)-1H-benzo[d]imidazole] yielded an IC50 [1] of less than 0.2 µM, an EC50 [2, 4] of 0.2 to 1 µM and an IC50 [3] of 1 to 10 µM.
`CO[C@H]1CCN(Cc2cc(C(F)(F)F)c3oc(-c4cccc(-c5ccc(F)cc5-c5nncn5C)c4)nc3c2)C1` [AB-2, (S)-2-(4′-Fluoro-2′-(4-methyl-4H-1,2,4-triazol-3-yl)-[1,1′-biphenyl]-3-yl)-5-((3-methoxypyrrolidin-1-yl)methyl)-7-(trifluoromethyl)benzo[d]oxazole] was tested, and the IC50 [1] was less than 0.2 µM, the EC50 [2, 4] was 1 to 10 µM and the IC50 [3] was 1 to 10 µM.
`Cn1cnnc1-c1cc(F)ccc1-c1cc(C(=O)Nc2cc(CN3CCC4(CC4)C3)cc(C(F)(F)F)c2N)nc(C2CC2)c1` [ABA-1, N-(5-((5-Azaspiro[2.4]heptan-5-yl)methyl)-2-amino-3-(trifluoromethyl)phenyl)-6-cyclopropyl-4-(4-fluoro-2-(4-methyl-4H-1,2,4-triazol-3-yl)phenyl)picolinamide] was tested, and the IC50 [1] was less than 0.2 µM, the EC50 [2, 4] was 0.2 to 1 µM and the IC50 [3] was 1 to 10 µM.
`Cn1cnnc1CC1(c2cccc(-c3nc4cc(CN5CCC6(CC6)C5)cc(C(F)(F)F)c4[nH]3)c2)COC1` [ABK-1, 5-((5-Azaspiro[2.4]heptan-5-yl)methyl)-2-(3-(3-((4-methyl-4H-1,2,4-triazol-3-yl)methyl)oxetan-3-yl)phenyl)-7-(trifluoromethyl)-1H-benzo[d]imidazole] gave an IC50 [1] of 0.2 to 1 µM, an EC50 [2, 4] of 1 to 10 µM and an IC50 [3] of 1 to 10 µM.
`Cn1cnnc1-c1cc(F)ccc1-c1cccc(-c2nc3cc(CNCC4(O)COC4)cc(C(F)(F)F)c3o2)c1` [AC-2, 3-((((2-(4′-Fluoro-2′-(4-methyl-4H-1,2,4-triazol-3-yl)-[1,1′-biphenyl]-3-yl)-7-(trifluoromethyl)benzo[d]oxazol-5-yl)methyl)amino)methyl)oxetan-3-ol] showed an IC50 [1] of less than 0.2 µM, an EC50 [2, 4] of 0.2 to 1 µM and an IC50 [3] of 1 to 10 µM.
`Cn1cnnc1-c1ccccc1-c1cccc(-c2nc3cc(CN4CCC5(CC5)C4)cc(C(F)(F)F)c3[nH]2)c1` [ACF-1, 5-((5-Azaspiro[2.4]heptan-5-yl)methyl)-2-(2′-(4-methyl-4H-1,2,4-triazol-3-yl)-[1,1′-biphenyl]-3-yl)-7-(trifluoromethyl)-1H-benzo[d]imidazole] showed an IC50 [1] of 0.2 to 1 µM, an EC50 [2, 4] of 1 to 10 µM and an IC50 [3] of 10 to 50 µM.
`CC(c1cc(C(F)(F)F)c2[nH]c(-c3cccc(C4(Cc5nncn5C)COC4)c3)nc2c1)N1CCC2(CC2)C1` (stereo not drawn) [ACK-3, 5-(1-(5-Azaspiro[2.4]heptan-5-yl)ethyl)-2-(3-(3-((4-methyl-4H-1,2,4-triazol-3-yl)methyl)oxetan-3-yl)phenyl)-7-(trifluoromethyl)-1H-benzo[d]imidazole] was tested, and the IC50 [1] was 0.2 to 1 µM, the EC50 [2, 4] was 1 to 10 µM and the IC50 [3] was 10 to 50 µM.

From patent US20250163038A1, “CBL-B MODULATORS AND USES THEREOF” (Nimbus Clio, Inc., priority 2021, published 2025)
